Source: patent US20110172193A1, “PRO-DRUGS OF (E)-7-(3-(2-AMINO-1-FLUOROETHYLIDENE)PIPERIDIN-1-YL)-1-CYCLOPROPYL-6-FLUORO-8-METHOXY-4-OXO-1,4-DIHYDROQUINOLINE-3-CARBOXYLIC ACID” (priority 2010, published 2011)
Like-named read-outs stand apart in the source and are kept apart here.

How the values were obtained:
[1] = In vitro bioconversion of pro-drug to parent drug in human blood and plasma; type: in vitro ADME; settings: for Peak Area of pro-drug: 37° C.; for Conversion to the parent compound (summary in words): human whole blood and plasma
Experimental: Compounds #1, #4, #6, #15, and #16, as well as the parent drug [(E)-7-(3-(2-amino-1-fluoroethylidene)piperidin-1-yl)-1-cyclopropyl-6-fluoro-8-methoxy-4-oxo-1,4-dihydroquinoline-3-carboxylic acid] (the compound of formula (M)) were dissolved to 1 mg/mL, and diluted to 20 ng/mL in fresh, chilled (4° C.) human or mouse whole blood or plasma, or kidney and liver extract (prepared from the respective fresh mouse organs as described below). Compound concentrations were normalized to parent drug content by multiplying by a ratio of the relative molecular weights. Time 0 (minute) samples were prepared by immediately diluting with an equal volume of acetonitrile, vortexing, and transferring the samples to ice. For additional time points, samples were placed in an incubator (Tables 4 and 5), or in a heating block (Tables 6-12) at 37° C. for the indicated time, then immediately vortexed with an equal volume of acetonitrile and placed on ice. Samples were centrifuged and further diluted with an equal volume of water to a final concentration of 25% acetonitrile prior to analysis by HPLC; diluted samples were retained in the cooled (4° C.) HPLC sample injection chamber pending injection.
Representative compounds of the present invention and the parent compound were analyzed by reversed-phase HPLC using an Agilent 1100 system. Samples were injected onto a Zorbax SB-C18 column (3.5 μM, 4.6×150 mm) with a guard cartridge, and developed on a gradient of 15% aqueous acetonitrile in 0.1% trifluoroacetic acid to 85% aqueous acetonitrile in 0.1% trifluoroacetic acid over 10 minutes. The solvent flow rate was 1 mL/min, and the column temperature was 40° C. Compound and parent peak identification was by diode array detection, monitored at 300 nm Conversion of the compounds (prodrugs) to parent drug was estimated by peak areas (A300 nm, mAU) of the respective agents.
For studies with Compounds #1, #4 and #6 (with results as listed in Tables 8, 9 and 10), fresh human whole blood and plasma samples were purchased from BioChemed Services, shipped in Styrofoam coolers maintained with frozen cold packs, and used within 48 hours of receipt. For studies with Compounds #15 and #16 (with results as listed in Tables 11 and 12), blood was drawn from volunteers and whole blood samples and isolated plasma prepared and immediately placed on ice. Whole blood and plasma samples were maintained at 4° C. and used within approximately 30 hours.

[2] = system: Staphylococcus aureus (OC8525), a methicillin-resistant strain (MRSA); assay: In vivo efficacy in a mouse systemic infection model; settings: for ED50: Staphylococcus aureus, 72 h, Swiss Webster mice infected i.p. with MRSA, 3 day survival, normalized to parent content
Experimental: Female Swiss Webster mice weighing between 20-25 g were infected intraperitoneally with approximately 5×10^5 colony forming units (CFU) Staphylococcus aureus (OC8525), a methicillin-resistant strain (MRSA), in 7% mucin. One hour later, the animals were given the test compound intravenously or orally in a dose volume of 0.2 mL. Each animal test group consisted of eight animals. The test compounds were prepared immediately before dosing in 5% dextrose in water (D5W) and diluted further in D5W for i.v. and p.o. administration. The mice were observed over a three day period and ED50 values were calculated from the resulting % survival curves (see Table 13, below). The measured ED50 values were normalized to the content of (E)-7-(3-(2-amino-1-fluoroethylidene)piperidin-1-yl)-1-cyclopropyl-6-fluoro-8-methoxy-4-oxo-1,4-dihydroquinoline-3-carboxylic acid. For some compounds, in vivo efficacy was determined by testing a group of eight mice at a single dose level only. In these cases, the data presented in Table 13, below are reported as percent survival at the designated dose.

[3] = Clarity of test compound solutions at […] (aqueous solubility); settings: for solubility at 24 h: 50 mM citrate buffer, pH 4, aqueous buffer, thermodynamic from solid; for Aqueous Solubility pH~7 (visual clarity): […] active-form equivalents, pH 7 (50 mM phosphate), after 24 hours
Experimental: A 50-mg/mL solution of a compound of formula (I) or a compound of formula (II) in H2O was titrated with 0.1 M NaOH until pH reached 5.7-6.1. Any solid that precipitated was filtered. The remaining solutions or phase-separated oil/H2O mixtures were freeze-dried to produce zwitterions as fluffy solids.
The aqueous solubility of Compounds #14, #15 and #16 were determined by a modified procedure. In these cases, the samples were targeted at a pH of 4 and 7 and were measured exclusively using 100 mM phosphate buffers. For both pH's, measured samples were initially prepared at ˜3 mg/ml and ˜10 mg/ml concentrations and for samples that dissolved rapidly, additional compound was added to the solution until saturated solutions were obtained.

[4] = In vitro bioconversion of pro-drug to parent drug in mouse blood, plasma, liver and kidney extract; type: in vitro ADME; settings: for Peak Area of pro-drug: 37° C. incubator; for Conversion to the parent compound (summary in words): mouse whole blood, liver/kidney extracts, plasma
Experimental: Compound concentrations were normalized to parent drug content by multiplying by a ratio of the relative molecular weights. Time 0 (minute) samples were prepared by immediately diluting with an equal volume of acetonitrile, vortexing, and transferring the samples to ice. […] Representative compounds of the present invention and the parent compound were analyzed by reversed-phase HPLC using an Agilent 1100 system. […] The solvent flow rate was 1 mL/min, and the column temperature was 40° C. Compound and parent peak identification was by diode array detection, monitored at 300 nm Conversion of the compounds (prodrugs) to parent drug was estimated by peak areas (A300 nm, mAU) of the respective agents. Mouse whole blood and plasma were collected from Swiss Webster mice, and stored at 4° C. until use (within 48 hours). […] For these experiments, fresh whole mouse livers or kidneys were homogenized for approximately 30 seconds (Omni-Tip™ disposable homogenizer tip) in 1 mL sterile saline and immediately stored on ice. Crude extracts (non-centrifuged) were incubated with the test compound or parent (20 μg/mL) and processed as described above.

[5] = Aqueous solubility, modified procedure (saturated solutions, RP-HPLC); type: physicochemical; settings: thermodynamic from solid, 100 mM phosphate buffer
[6] = fresh human blood (purchased), 0.0 min
[7] = fresh human plasma (purchased), 0.0 min
[8] = fresh human plasma (purchased), 5.0 min
[9] = fresh human plasma (purchased), 15.0 min
[10] = fresh human plasma (purchased), 30.0 min
[11] = oral dose 1 h later, read-out: ED50 p.o.
[12] = iv, i.v. dose 1 h later, read-out: ED50 i.v.
[13] = homogenized mouse kidney, 0 min
[14] = homogenized mouse kidney, 5 min
[15] = homogenized mouse kidney, 30 min
[16] = homogenized mouse liver, 30 min

Structure (SMILES)	Peak Area of pro-drug [1, 6]	Peak Area of pro-drug [1, 7]	Peak Area of pro-drug [1, 8]	Peak Area of pro-drug [1, 9]	Peak Area of pro-drug [1, 10]	Conversion to the parent compound (summary in words) [1]	ED50 [2, 11]	ED50 [2, 12]	solubility at 24 h [3]	Aqueous Solubility pH~7 (visual clarity) [3]	Peak Area of pro-drug ([4]; fresh mouse plasma, 0 min)	Peak Area of pro-drug ([4]; fresh mouse plasma, 5 min)	Peak Area of pro-drug ([4]; fresh mouse plasma, 30 min)	Peak Area of pro-drug [4, 13]	Peak Area of pro-drug [4, 14]	Peak Area of pro-drug [4, 15]	Peak Area of pro-drug ([4]; homogenized mouse liver, 0 min)	Peak Area of pro-drug ([4]; homogenized mouse liver, 5 min)	Peak Area of pro-drug [4, 16]	Conversion to the parent compound (summary in words) [4]	other results
COc1c(N2CCC/C(=C(\F)CNC(=O)CN)C2)c(F)cc2c(=O)c(C(=O)O)cn(C3CC3)c12.Cl [Compound 6, 7-{3-[2-(2-Amino-acetylamino)-1-fluoro-ethylidene]-piperidin-1-yl}-1-cyclopropyl-6-fluoro-8-methoxy-4-oxo-1,4-dihydro-quinoline-3-carboxylic acid hydrochloride]	369 mAU	393 mAU	386 mAU	399 mAU	393 mAU	converted to the parent compound	> 17.6 mg/kg	0.6 mg/kg	< 3300 µg/mL	No	363 mAU	329 mAU	281 mAU	219 mAU	72 mAU	11 mAU	254 mAU	143 mAU	34 mAU	converted to the parent compound	Peak Area of pro-drug ([1]; fresh human blood (purchased), 3.5 min): 290 mAU; Peak Area of pro-drug ([1]; fresh human blood (purchased), 6.0 min): 188 mAU; Peak Area of pro-drug ([1]; fresh human blood (purchased), 8.5 min): 159 mAU; Peak Area of pro-drug ([1]; fresh human blood (purchased), 11.0 min): 134 mAU; Peak Area of pro-drug ([1]; fresh human blood (purchased), 16.0 min): 95 mAU
COc1c(N2CCC/C(=C(\F)CNC(=O)[C@@H](N)C(C)C)C2)c(F)cc2c(=O)c(C(=O)O)cn(C3CC3)c12.Cl [Compound 1, 7-{3-[2-((2S)-2-Amino-3-methyl-butyrylamino)-1-fluoro-ethylidene]-piperidin-1-yl}-1-cyclopropyl-6-fluoro-8-methoxy-4-oxo-1,4-dihydro-quinoline-3-carboxylic acid hydrochloride]	365 mAU	401 mAU	386 mAU	369 mAU	371 mAU	converted to the parent compound	9.9 mg/kg	1.3 mg/kg	< 3300 µg/mL	No	298 mAU	296 mAU	286 mAU	222 mAU	152 mAU	41 mAU	235 mAU	171 mAU	51 mAU	converted to the parent compound	Peak Area of pro-drug ([1]; fresh human blood (purchased), 3.0 min): 339 mAU; Peak Area of pro-drug ([1]; fresh human blood (purchased), 5.5 min): 339 mAU; Peak Area of pro-drug ([1]; fresh human blood (purchased), 8.0 min): 328 mAU; Peak Area of pro-drug ([1]; fresh human blood (purchased), 10.5 min): 289 mAU; Peak Area of pro-drug ([1]; fresh human blood (purchased), 15.5 min): 256 mAU
COc1c(N2CCC/C(=C(\F)CNC(=O)[C@@H](N)CN(C)C)C2)c(F)cc2c(=O)c(C(=O)O)cn(C3CC3)c12.Cl.Cl [Compound 14, 7-{3-[2-((2S)-2-Amino-3-dimethylamino-propionylamino)-1-fluoro-ethylidene]-piperidin-1-yl}-1-cyclopropyl-6-fluoro-8-methoxy-4-oxo-1,4-dihydro-quinoline-3-carboxylic acid dihydrochloride]	–	–	–	–	–	–	–	–	–	–	–	–	–	–	–	–	–	–	–	–	% Survival ([2]; i.v., at 2.0 mg/kg/day, mice): 12.5% at 2.0 mg/kg/day; solubility at 18 h ([5]; pH 4, aqueous buffer, read-out: Aqueous Solubility pH~4): 6890 µg/mL; solubility at 18 h ([5]; pH 7, aqueous buffer, read-out: Aqueous Solubility pH~7): > 3000 µg/mL
